From patent US11191754B2, “Inhibitors of nucleotidyl transferases and uses in herpes and hepatitis viral infections therefor” (Saint Louis University, priority 2015, dated 2021)
“And” between values parts separate entries of the source, which are not always exact repeats. Identical values can stand only once. Like-named read-outs stand apart in the source and are kept apart here.

Tests used:
[1] = test system: TK-deficient mutant of HSV-2 strain 333, ΔTK-; assay: Replication of TK-deficient HSV-2 mutant in Vero cells; assay type: cell-based, herpes simplex virus 2 (HSV-2); details: 5 μM, 24 h (FIG. 3)
Description: (§1) Vero cells were maintained in Dulbecco's modified Eagle's medium (DMEM) containing 3% newborn calf serum, 3% bovine growth serum, 2 mM L-glutamine and 100 IU/mL penicillin and 0.1 mg/mL streptomycin (P/S). HSV-1 #6 and HSV-2 #1 are de-identified clinical isolates from the Saint Louis University Hospital. Stocks were prepared after a single passage in cell culture and were titered by standard plaque assay (Knipe and Spang, 1982). Wild-type HSV-2 used in FIG. 3 was laboratory strain 333. The TK-deficient mutant of HSV-2 strain 333, ΔTK-, contains a 180-bp KpnI-KpnI deletion in the UL23 open reading frame that abrogates TK activity (McDermott, et al, 1984). ΔTK—was the generous gift of Jim Smiley. Virus stocks were grown and titered on Vero cells (Morrison and Knipe, 1996).
ACV is a nucleoside analog prodrug that must be phosphorylated by the viral thymidine kinase (TK) for it to become a substrate for the viral DNA polymerase (Elion, et al., 1977). HSV TK-deficient mutants are therefore insensitive to ACV. […] Vero cells were infected with a laboratory strain of HSV-2 and an engineered TK-deficient mutant of the same strain. […] ACV 5 μM inhibited wild-type HSV-2 replication 100-fold, but it had little effect on the TK-mutant (FIG. 3).

[2] = Mouse liver microsome assay; assay type: in vitro ADME; details: for CLint scaled at 1 μM: mouse, liver microsomes
Description: Microsomal incubations are run at a final P450 concentration of 0.25 μM. […] The mixture is prewarmed for 5 min at 37° C. To initiate the reaction a 12 mM stock of NAPDH (1.2 mM, final concentration) is added to the warmed microsomal mixture and aliquots are removed at 0, 5, 10, 20 and 30 min. […] Samples are vortexed and spun down at 3200 rpm for 5 min. The supernant is transferred to 96-deep well plates and run on LC/MS/MS.

in vitro = assay type: cell-based; details: African green monkey
Description: Qualitative assessments of cytotoxicity were done visually by inspecting the cells in the primary screening assays. For the quantitative assays, cells were plated in 96-well plates at 1.0×10^4 per well. The next day the compounds were added at 0.78 to 100 μM in a final concentration of 1% (v/v) DMSO, and the cells were incubated for 24 hours under conditions identical to those employed for the viral replication inhibition assays. Mitochondrial toxicity was measured by incubating the cells with 0.25 mg/mL thiazolyl blue tetrazolium bromide (MTT, SigmaAldrich Chemical Co.), the cultures were incubated for 60 min, metabolites were solubilized in acidic isopropanol, and absorbance was read at 570 nm. CC50 values were calculated by non-linear curve fitting using GraphPad Prism.
A quantitative toxicity measurement was conducted. Toxicity was assessed by measuring release of intracellular proteases into the culture medium due to cellular lysis. Cells were plated in 96-well plates at 1.0×10^4 per well. The next day compound was added in concentrations ranging from 0.78 to 100 μM in a final concentration of 1% (v/v) DMSO. The cells were incubated for 24 hours under conditions identical to those employed for the viral replication inhibition assays, and then […] according to the manufacturer's instructions. […]

HSV-1 = assay: Anti-HSV-1 replication assay (virus yield by plaque assay on Vero cells); assay type: cell-based, herpes simplex virus 1 (HSV-1); details: for HSV-1 inhibition category: semi-quantitative replication inhibition assay
Description: as §1, with “The TK-deficient mutant of HSV-2 strain 333, ΔTK-, contains a 180-bp KpnI-KpnI deletion in the UL23 open reading frame that abrogates TK activity (McDermott, et al, 1984). ΔTK—was the generous gift of Jim Smiley.” left out
(§2) Compounds to be screened were diluted in PBS supplemented to contain 2% newborn calf serum and 1% glutamine, and added in 100 μL volume to confluent cell monolayers in 24-well cluster plates. Immediately thereafter HSV-1 and HSV-2, diluted in the supplemented PBS medium, were added to the wells in 50 μl volume such that the final concentration of compound was 50 μM, 5 μM and 1 μM and the multiplicity of infection was 0.1. The plates were incubated at 37° C. for 1 hour and then virus-containing inoculum was removed and the wells were washed once in PBS. Compound, diluted to 50 μM, 5 μM and 1 μM in DMEM supplemented to contain 2% newborn calf serum and 1% each penicillin/streptomycin, was added at 0.5 mL/well. Plates were incubated at 37° C. an additional 23 hours, and then the plates were visually inspected through a phase contrast microscope for cytopathic effect, and for toxic effect. The entire contents of each well were collected by scraping. Samples were frozen at −80° C., and then subsequently thawed, sonicated, and infectious virus titer was determined by standard plaque assay on Vero cell monolayers. Because the compounds were dissolved at 10 mM in 100% DMSO, equivalent dilutions of DMSO were added to additional wells as a control for effects of the diluent. Each experiment was repeated once. EC50 values were determined as above except that serial dilutions of the compound to be tested were prepared starting at 50 μM. The inhibitory values were calculated by non-linear curve-fitting in GraphPad Prism.

HSV-2 = assay: Anti-HSV-2 replication assay (virus yield by plaque assay on Vero cells); assay type: cell-based, herpes simplex virus 2 (HSV-2); details: for HSV-2 inhibition category: semi-quantitative replication inhibition assay
Description: as §1, with “The TK-deficient mutant of HSV-2 strain 333, ΔTK-, contains a 180-bp KpnI-KpnI deletion in the UL23 open reading frame that abrogates TK activity (McDermott, et al, 1984). ΔTK—was the generous gift of Jim Smiley.” left out
as §2

[3] = 1 μM, Vero cells, moi 0.1, 24 h, relative to DMSO control
[4] = 5 μM, Vero cells, moi 0.1, 24 h, relative to DMSO control
[5] = 50 μM, Vero cells, moi 0.1, 24 h, relative to DMSO control

Compound: Cc1cc(CC(C)CC(C)(C)C)n(O)c(=O)c1 (centres unmarked) [#191, Piroctone olamine]
- inhibition of TK-mutant HSV-2 [1]: efficiently inhibited
- ER ([2]; extraction ratio, mouse liver microsomes): 0.09
- Non-P450 turn-over ([2]; mouse liver microsomes): No
- half-life at 1 μM ([2]; mouse liver microsomes, 1 μM compound, read-out: t ½): > 2 h
- CLint scaled at 1 μM ([2]; 1 μM compound, read-out: CL ‘hep): 8 mL/min/kg
- CLint scaled at 1 μM ([2]; 1 μM compound, read-out: CL’int): 9 mL/min/kg
- CC50 at 24 h (in vitro): > 100 µM
- HSV-1 inhibition category (HSV-1; 1 μM): intermediate (1 to 3 log10 suppression, which equals 10- to 1,000-fold reduction)
- HSV-1 Log10 suppression 1 μM (HSV-1; [3]): 2.71 log10
- HSV-1 replication inhibition, fold (HSV-1; 5 μM): 4,074 fold
- HSV-1 inhibition category (HSV-1; 5 μM): strong (3 to 6 log10 suppression, or 1,000- to 1,000,000-fold reduction)
- HSV-1 Log10 suppression 5 μM (HSV-1; [4]): 3.61 log10 and 3.53 log10
- HSV-1 inhibition category (HSV-1; 50 μM): strong (3 to 6 log10 suppression, or 1,000- to 1,000,000-fold reduction)
- HSV-1 Log10 suppression 50 μM (HSV-1; [5]): 3.85 log10
- HSV-2 inhibition category (HSV-2; 1 μM): intermediate (1 to 3 log10 suppression, which equals 10- to 1,000-fold reduction)
- HSV-2 Log10 suppression 1 μM (HSV-2; [3]): 1.70 log10
- HSV-2 replication inhibition, fold (HSV-2; 5 μM): 39,000 fold
- HSV-2 inhibition category (HSV-2; 5 μM): strong (3 to 6 log10 suppression, or 1,000- to 1,000,000-fold reduction)
- suppression of replication of three primary clinical isolates of HSV-2 (HSV-2; 5 μM, Vero cells, moi 0.1, 24 h (FIG. 2)): > 4.7 log10
- HSV-2 Log10 suppression 5 μM (HSV-2; [4]): 4.59 log10 and 4.53 log10
- inhibition of wild-type HSV-2 (HSV-2; 5 μM, laboratory strain 333, Vero cells, 24 h (FIG. 3)): efficiently inhibited
- HSV-2 inhibition category (HSV-2; 50 μM): strong (3 to 6 log10 suppression, or 1,000- to 1,000,000-fold reduction)
- HSV-2 Log10 suppression 50 μM (HSV-2; [5]): 4.25 log10
